Data published in patent US20070254946A1, “Hair Growth Stimulants” (priority 2003, published 2007).

What was measured:
hair-matrix cells = assay: Proliferation effect of cultured hair-matrix cells; type: cell-based, Mouse; details: cultured 6 days; for Relative value of the number of cells: control group = 100%
Experimental: Mouse hair tissues were collected and hair-matrix cells were cultured by the method disclosed by Tanigaki, et al., using serum free media (Tanigaki, et al., (1990), Arch. Dermatol. Res. 282: 402-407).
On the first day after the start of culturing hair-matrix cells, the culture media were changed to those containing the above-mentioned chromene compounds.
After culturing the hair-matrix cells for 6 days, they were separated from the culture dishes and the number of cells was counted. The effect of each chromene compound is shown by a relative ratio with the number of cells in the control group (the group cultured in a serum-free medium) being defined as 100%.

[1] = reported in Annual Report of Toyama Prefectural Institute for Pharmaceutical Research, 1998; cited from earlier work

Row | SMILES | Proliferation rate (hair-matrix cells; 1 μg/ml in culture medium) [% increase over control] | Relative value of the number of cells (hair-matrix cells; 1 μg/ml in culture medium) [% control] | Proliferation rate (hair-matrix cells; 10 μg/ml in culture medium) [% increase over control] | Relative value of the number of cells (hair-matrix cells; 10 μg/ml in culture medium) [% control] | acute toxicity [1]
1 | COc1c(C(C)=O)cc2c(c1OC)OC(C)(C)C=C2 [Methylripariochromene A, 6-acetyl-7,8-dimethoxy-2,2-dimethylchromene] | 12 | 112 | 53 | 153 | no toxicity
2 | COc1cc(C(C)=O)cc2c1OC(C)(C)C=C2 [Acetovanillochromene, 6-acetyl-8-methoxy-2,2-dimethylchromene] | 33 | 133 | 35 | 135 | –
3 | COc1c(C(C)O)cc2c(c1OC)OC(C)(C)C=C2 (stereo not shown) [Orthochromene A, 6-(1-hydroxyethyl)-7,8-dimethoxy-2,2-dimethylchromene] | 18 | 118 | 44 | 144 | –
